Measured values taken from ChEMBL document CHEMBL3853273, “Multi-target screening mines hesperidin as a multi-potent inhibitor: Implication in Alzheimer's disease therapeutics” (Eur J Med Chem, 2016).
Activity calls are given as the source filed them. The rule behind the calls is not given here.

Columns and labels:
[1] = Antioxidant activity of the compound assessed as inhibition of fenton reaction-induced DNA strand cleavage of plasmid pcDNA Hismyc B4 after 1 hr by ethidium bromide staining-based agarose gel electrophoresis; assay type: functional
[2] = molecular target: Beta-secretase 1 (Homo sapiens) (UniProt P56817); experiment: Binding affinity to BACE1 (unknown origin) in acetate buffer at pH 4.8 at 0.25 to 5 uM by steady state spectrofluorimeter
[3] = molecular target: Beta-secretase 1 (Homo sapiens) (UniProt P56817); experiment: Binding affinity to BACE1 (unknown origin) in acetate buffer at pH 4.8 at 250 nM by steady state spectrofluorimeter
[4] = molecular target: Beta-secretase 1 (Homo sapiens) (UniProt P56817); experiment: Binding affinity to BACE1 (unknown origin) in PBS at pH 7.4 up to 10 uM by steady state spectrofluorimeter
[5] = molecular target: Beta-secretase 1 (Homo sapiens) (UniProt P56817); experiment: Binding affinity to BACE1 (unknown origin) in acetate buffer at pH 4.8 assessed as increase in lifetime species of excited tryptophan in active site at 5 uM by time-resolved fluorescence spectroscopy relative to control
[6] = molecular target: Beta-secretase 1 (Homo sapiens) (UniProt P56817); experiment: Binding affinity to BACE1 (unknown origin) by fluorescence titration method
[7] = molecular target: Beta-secretase 1 (Homo sapiens) (UniProt P56817); experiment: Inhibition of BACE1 (unknown origin) at 500 nM incubated for 2 hrs by FRET assay relative to control
[8] = molecular target: Amyloid-beta precursor protein (Homo sapiens) (UniProt P05067); experiment: Inhibition of amyloid beta (25 to 35 residues) (unknown origin) aggregation at 20 uM incubated for 3 days by intrinsic flavonoid fluorescence assay
[9] = molecular target: Amyloid-beta precursor protein (Homo sapiens) (UniProt P05067); experiment: Inhibition of amyloid beta (25 to 35 residues) (unknown origin) aggregation at 20 uM incubated for 3 days by 8-anilino-1-naphthalene-based fluorescence spectrophotometric method
[10] = molecular target: Amyloid-beta precursor protein (Homo sapiens) (UniProt P05067); experiment: Inhibition of amyloid beta (25 to 35 residues) (unknown origin) aggregation at 20 uM incubated for 3 days by thioflavin T-based fluorescence spectrophotometric method
[11] = molecular target: Amyloid-beta precursor protein (Homo sapiens) (UniProt P05067); experiment: Inhibition of amyloid beta (25 to 35 residues) (unknown origin) aggregation at 10 uM incubated for 3 days by thioflavin T-based fluorescence spectrophotometric method relative to control
[12] = molecular target: Amyloid-beta precursor protein (Homo sapiens) (UniProt P05067); experiment: Inhibition of amyloid beta (25 to 35 residues) (unknown origin) aggregation at 100 uM incubated for 7 days by atomic force microscopic method
[13] = Antioxidant activity of the compound assessed as ABTS free radical scavenging activity; assay type: functional
[14] = Antioxidant activity of the compound assessed as inhibition of fenton reaction-induced DNA strand cleavage of plasmid pcDNA Hismyc B4 at 250 uM after 1 hr by ethidium bromide staining-based agarose gel electrophoresis; assay type: functional

Chain of Beta-secretase 1 (Homo sapiens) (P56817 whole entry, the tested form may be a part): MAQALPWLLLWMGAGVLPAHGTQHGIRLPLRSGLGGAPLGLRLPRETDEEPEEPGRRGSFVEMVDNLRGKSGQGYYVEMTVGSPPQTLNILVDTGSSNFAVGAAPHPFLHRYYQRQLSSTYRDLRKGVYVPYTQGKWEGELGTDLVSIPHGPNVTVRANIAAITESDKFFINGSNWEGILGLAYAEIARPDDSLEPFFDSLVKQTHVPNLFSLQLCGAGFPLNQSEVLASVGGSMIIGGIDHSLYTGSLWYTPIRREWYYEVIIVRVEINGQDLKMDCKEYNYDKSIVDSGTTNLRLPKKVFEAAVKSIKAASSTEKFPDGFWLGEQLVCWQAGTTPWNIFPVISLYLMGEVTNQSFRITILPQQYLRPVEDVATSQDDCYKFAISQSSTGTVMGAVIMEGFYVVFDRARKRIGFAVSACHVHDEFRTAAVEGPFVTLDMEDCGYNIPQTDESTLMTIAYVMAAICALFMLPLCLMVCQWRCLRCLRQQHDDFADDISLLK
Chain of Amyloid-beta precursor protein (Homo sapiens) (P05067 whole entry, the tested form may be a part): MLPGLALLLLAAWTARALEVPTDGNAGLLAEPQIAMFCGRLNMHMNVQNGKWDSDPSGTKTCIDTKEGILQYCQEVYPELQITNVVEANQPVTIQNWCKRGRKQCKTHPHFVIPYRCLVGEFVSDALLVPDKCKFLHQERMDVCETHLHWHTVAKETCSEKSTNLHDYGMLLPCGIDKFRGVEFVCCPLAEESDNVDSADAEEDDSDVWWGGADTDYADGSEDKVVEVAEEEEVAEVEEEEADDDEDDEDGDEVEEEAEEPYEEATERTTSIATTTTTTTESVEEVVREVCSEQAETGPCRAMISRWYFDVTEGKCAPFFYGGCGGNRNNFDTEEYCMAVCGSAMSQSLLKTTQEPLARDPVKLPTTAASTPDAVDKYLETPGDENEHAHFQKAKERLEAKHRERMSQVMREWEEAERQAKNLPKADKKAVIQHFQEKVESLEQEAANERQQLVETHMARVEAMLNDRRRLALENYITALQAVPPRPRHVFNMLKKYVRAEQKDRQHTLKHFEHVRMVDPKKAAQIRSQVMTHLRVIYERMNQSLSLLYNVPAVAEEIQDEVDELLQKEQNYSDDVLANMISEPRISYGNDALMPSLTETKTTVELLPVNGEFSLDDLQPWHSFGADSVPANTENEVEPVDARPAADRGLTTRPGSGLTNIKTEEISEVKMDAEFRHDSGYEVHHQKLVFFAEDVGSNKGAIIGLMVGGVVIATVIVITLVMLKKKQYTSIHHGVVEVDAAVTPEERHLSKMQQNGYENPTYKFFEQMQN

| Structure (SMILES) | inhibition [1] | Activity [2] | Activity [3] | Activity [4] | fold change (FC) [5] | K [6] | inhibition [7] [%] | inhibition [8] | inhibition [9] | inhibition [10] | inhibition [11] [%] | inhibition [12] | Activity [13] | IC50 [13] [µM] | inhibition [14] |
| --- | --- | --- | --- | --- | --- | --- | --- | --- | --- | --- | --- | --- | --- | --- | --- |
| Cc1c(C)c2c(c(C)c1O)CCC(C)(C(=O)O)O2 (stereo not given) | Active | – | – | – | – | – | – | – | – | – | – | – | – | – | – |
| COc1ccc([C@@H]2CC(=O)c3c(O)cc(O[C@@H]4O[C@H](CO[C@@H]5O[C@@H](C)[C@H](O)[C@@H](O)[C@H]5O)[C@@H](O)[C@H](O)[C@H]4O)cc3O2)cc1O [HESPERIDIN] | – | Active | Active | Active | 2.5 | 302000 | 100 | Active | Active | Active | 40 | Active | Dose-dependent effect | 16.5 | Active |
